Consider three molecules from patent US7572606B1 (Nereus Pharmaceuticals, Inc., priority 2005, dated 2009).

Each structure is given as a SMILES string. Where two headings read alike, the source gives them in different places. Some results are limits rather than exact numbers.

One series relates to HT-29. The series can be described thus: Cell growth inhibition, resazurin, 48 h. The class given is cell-based, human. Conditions: HT-29, 48 h drug exposure. As to the method:
RPMI 8226 (CCL-155), HT-29 (HTB-38), and B16-F10 (CRL-6475) cells were purchased from ATCC. RPMI 8226 cells were maintained in RPMI 1640 media supplemented with 10% (v/v) FBS, 2 mM L-glutamine, 1 mM sodium pyruvate and Penicillin/Streptomycin at 100 IU/ml and 100 μg/ml, respectively. HT-29 cells were maintained in McCoys 5A supplemented with 10% (v/v) FBS, 2 mM L-glutamine, 1 mM sodium pyruvate, 1% (v/v) non-essential amino acids, 10 mM HEPES and Penicillin/Streptomycin at 100 IU/ml and 100 μg/ml, respectively. B16-F10 cells were maintained in DMEM supplemented with 10% (v/v) FBS, 2 mM L-glutamine, 10 mM HEPES and Penicillin/Streptomycin at 100 IU/ml and 100 μg/ml, respectively.
RPMI 8226 cells were seeded at 2×10^4 cells/well in 90 μl RPMI media containing 10% (v/v) FBS or 1% (v/v) FBS into 96 well black-walled, clear-bottom tissue culture plates. […] Formulae II-16, II-17 and Formula II-18 were serially diluted in media containing 1% or 10% FBS and added in triplicate to the test wells. […] The final concentration of Formula II-18 ranged from 2 μM to 630 pM.
In general terms: The colour change of resazurin is a common sign of viable cells or microbes.

In another series the test system is OVCAR-3. Put plainly: Cell growth inhibition, resazurin, 48 h. Format: cell-based, human. Conditions: OVCAR-3, 48 h drug exposure.
The subject of the next series is MES-SA. The series can be described thus: Cell growth inhibition, resazurin, 48 h. Conditions: for EC50: Homo sapiens, 48 h. As to the method: (§1) Concentrations ranging from 6.32 μM to 2 nM were tested for II-2 and II-4.
In a further series the test system is MES-SA/Dx5. The series can be described thus: Cell growth inhibition, resazurin, 48 h. The following applies: for EC50: Homo sapiens, MES-SA/Dx5, 48 h. How it is done: as §1
Series [1] concerns the target T1, trypsin-like activity of rabbit muscle 20S proteasome (Oryctolagus cuniculus, UniProt G1SWK8).
T1 construct: EC50 Trypsin-like; other: purified rabbit 20S proteasome, Boc-LRR-AMC; other: under the conditions tested
T1 sequence (G1SWK8 1-271): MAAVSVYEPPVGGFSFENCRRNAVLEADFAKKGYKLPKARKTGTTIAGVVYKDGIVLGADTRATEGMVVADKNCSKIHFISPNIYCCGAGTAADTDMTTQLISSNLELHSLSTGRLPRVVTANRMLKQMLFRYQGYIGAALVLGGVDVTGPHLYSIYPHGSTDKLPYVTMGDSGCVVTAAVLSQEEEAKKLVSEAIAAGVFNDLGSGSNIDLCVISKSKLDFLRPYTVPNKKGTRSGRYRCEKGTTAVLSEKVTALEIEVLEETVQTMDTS
The series can be described thus: In vitro inhibition of 20S proteasome, Boc-LRR-AMC. Format: biochemical. The following applies: for inhibition of the trypsin-like activity of the 20S proteasome: under the conditions tested; for EC50: purified rabbit 20S proteasome, Boc-LRR-AMC.

The subject of series [2] is 20S proteasome chymotrypsin-like activity in RPMI 8226 cells. Put plainly: Chymotrypsin-like activity of 20S proteasomes in treated cells. The following applies: 1 hr, mean ± SD, n = 3. Format: cell-based, human. As to the method: RPMI 8226 (ATCC, CCL-155), the human multiple myeloma cell line, was cultured in RPMI 1640 medium supplemented with 2 mM L-glutamine, 100 units/ml penicillin, 100 μg/ml streptomycin, 1 mM sodium pyruvate and 10% heat inactivated fetal bovine serum at 37° C., 5% CO2 and 95% humidified air. […] DMSO was used as the vehicle control at a final concentration of 0.1%. Following 1 hr incubation of RMPI 8226 cells with the compounds, the cells were pelleted by centrifugation at 2,000 rpm for 10 sec at room temperature and washed 3× with ice-cold 1×Dulbecco's Phosphate-Buffered Saline (DPBS, Mediatech, Herndon, Va.). DPBS washed cells were lysed on ice for 15 min in lysis buffer (20 mM HEPES, 0.5 mM EDTA, 0.05% Triton X-100, pH 7.3) supplemented with protease inhibitor cocktail (Roche Diagnostics, Indianapolis, Ind.). Cell debris was pelleted by centrifugation at 14,000 rpm for 10 min, 4° C. and supernatants (=cell lysates) were transferred to a new tube. Protein concentration was determined by the BCA protein assay kit (Pierce Biotechnology, Rockford, Ill.). […] The total amount of protein used for each assay was 20 μg. The final concentration of Suc-LLVY-AMC and DMSO was 20 μM and 0.2%, respectively.

The subject of series [3] is NF-κB-mediated luciferase activity in HEK293 NF-κB/Luc cells. Put plainly: NF-κB-mediated luciferase reporter gene assay. The class given is cell-based, human. Conditions: for EC50: 6 h TNF-α stimulation; for luciferase activity upon TNF-α stimulation: pretreatment of NF-κB/Luc 293 cells. An outline of the steps: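 HEK293 cells carrying luciferase under 5×NF-κB sites, in phenol-red free DMEM without G418, pretreated 1 h with compound (8-point half-log series), then stimulated with TNF-α for 6 h. Luciferase activity read as RLU after 10 min with Steady Lite reagent at room temperature.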

For another series, the system named is MDA-MB-231. Put plainly: Cell growth inhibition, resazurin, 48 h. The class given is cell-based, human. Conditions: MDA-MB-231, 48 h drug exposure.
In the next series the test system is NCI-H292. The series can be described thus: Cell growth inhibition, resazurin, 48 h. Format: cell-based, human. Conditions: NCI-H292, 48 h drug exposure.
The mark [4] stands for this setting: Homo sapiens, HEK293, 1 h pretreatment, read-out: EC50.

With `CC[C@H]1C(=O)N[C@@]2([C@@H](O)[C@@H]3C=CCCC3)C(=O)O[C@@]12C` [Formula II-17], the concentration for a half-maximal effect (EC50) (as a rule, the concentration needed to bring the measured effect to its halfway point) in the series on HT-29 (Homo sapiens, read-out: EC50) is > 20000 nM; in the series with OVCAR-3 (Homo sapiens, read-out: EC50), > 20000 nM; in the series on MES-SA (48 h drug exposure) it was 9230 nM; in the series with MES-SA/Dx5 (MES-SA/Dx5, 48 h drug exposure), 9450 nM; in [3] (setting [4]) it was 960 ± 210 nM; in the series on MDA-MB-231 (Homo sapiens, read-out: EC50), 5900 ± 601 nM. Also, the EC50 in the series with NCI-H292 (Homo sapiens, read-out: EC50) was > 20000 nM. In addition, the “inhibition of the trypsin-like activity of the 20S proteasome” value (shortened to “inhibition … of the 20S proteasome”) in series [1] is “able to inhibit the trypsin-like activity”. Besides, the “% inhibition of the chymotrypsin-like activity of 20S proteasomes in RPMI 8226 cell lysates” value (from here on “% inhibition”) is listed as 6 ± 6% in series [2] (1 nM); 10 ± 5% in series [2] (5 nM); 6 ± 6% in series [2] (10 nM); 26 ± 5% in series [2] (50 nM); 30±4% in series [2] (100 nM); 39 ± 3% in series [2] (500 nM). Moreover, the “% inhibition” value was 46 ± 4% in series [2] (1,000 nM) and 65 ± 5% in series [2] (10,000 nM).
In the case of `C[C@H]1C(=O)N[C@@]2([C@@H](O)[C@@H]3C=CCCC3)C(=O)O[C@@]12C` [Formula II-20], the half-maximal effective concentration (EC50) in [1] amounted to 321 nM; in series [1] (listed as II-20) it was 321 nM; in series [3] (1 h pretreatment), 849 ± 225 nM. In addition, the “inhibition … of the 20S proteasome” value in series [1] is given as “able to inhibit the trypsin-like activity”. The “% inhibition” value in series [2] (1 nM) stood at 3 ± 10%; in series [2] (5 nM) it was 31 ± 9%; in series [2] (10 nM), 37 ± 3%; in series [2] (50 nM) it was 64 ± 3%; in series [2] (100 nM) it was 66±3%; in series [2] (500 nM), 71 ± 2%. Also, the figures for the “% inhibition” value in series [2] (1,000 nM) and in [2] (10,000 nM) were 73 ± 2% and 87 ± 4%, respectively. The “luciferase activity upon TNF-α stimulation” value in series [3] is “dose-dependent decrease of luciferase activity”.
As for `C[C@@]12OC(=O)[C@]1([C@@H](O)[C@@H]1C=CCCC1)NC(=O)[C@@H]2CCCl` [Formula II-16, Salinosporamide A], the EC50 amounted to 40 ± 26 nM with HT-29; 47 nM in the series with HT-29 (Homo sapiens, HT-29, 48 h); 69 nM with OVCAR-3 (Homo sapiens, OVCAR-3, 48 h); 49 ± 31 nM in the series on OVCAR-3; 20 ± 5 nM in the series with MES-SA; 23 ± 1 nM in the series with MES-SA/Dx5. Besides, the EC50 in [3] (setting [4]) is ~7 nM; in the series with MDA-MB-231 (Homo sapiens, MDA-MB-231, 48 h) it was 67 nM; in the series on MDA-MB-231, 87 ± 40 nM; with NCI-H292 (Homo sapiens, NCI-H292, 48 h) it was 97 nM; in the series with NCI-H292, 66 ± 29 nM. For the same molecule, the “% cytotoxicity” value in the series on MES-SA is recorded as 94 ± 1%; in the series on MES-SA/Dx5 (MES-SA/Dx5), 92 ± 2%. For the same molecule, in [1], the “inhibition … of the 20S proteasome” value is on record as “able to inhibit the trypsin-like activity”. Moreover, the “% inhibition” value in series [2] (1 nM) came out at 30 ± 7%; in series [2] (5 nM) it was 85±7%; in [2] (10 nM) it was 94 ± 3%; in series [2] (50 nM), 97 ± 0%; in series [2] (100 nM), 98 ± 1%. Further, the “luciferase activity upon TNF-α stimulation” value in series [3] is recorded as “dose-dependent decrease of luciferase activity”.
